Laboratory results reported in ChEMBL document CHEMBL3046814, “Induction effects of host plants on insecticide susceptibility and detoxification enzymes of Bemisia tabaci (Hemiptera: Aleyrodidae)” (2011).
Values after ≈ are worked out from the molar mass of the structure shown.

Experiments:
Type in all cases: functional
Bemisia tabaci [1] = test: Insecticidal activity against Bemisia tabaci (sweet potato whitefly) infested cabbage leaves assessed as mortality after 48 hr by leaf dip method; details: foliar
Bemisia tabaci [2] = test: Insecticidal activity against Bemisia tabaci (sweet potato whitefly) infested tomato leaves assessed as mortality after 48 hr by leaf dip method; details: foliar
Bemisia tabaci [3] = test: Insecticidal activity against Bemisia tabaci (sweet potato whitefly) infested cucumber leaves assessed as mortality after 48 hr by leaf dip method; details: foliar
Bemisia tabaci [4] = test: Insecticidal activity against Bemisia tabaci (sweet potato whitefly) infested poinsettia leaves assessed as mortality after 48 hr by leaf dip method; details: foliar
Bemisia tabaci [5] = test: Resistance ratio of LC50 for Bemisia tabaci (sweet potato whitefly) infested poinsettia leaves to LC50 for Bemisia tabaci (sweet potato whitefly) infested tomato leaves
Bemisia tabaci [6] = test: Insecticidal activity against Bemisia tabaci (sweet potato whitefly) infested cotton leaves assessed as mortality after 48 hr by leaf dip method; details: foliar
Bemisia tabaci [7] = test: Resistance ratio of LC50 for Bemisia tabaci (sweet potato whitefly) infested poinsettia leaves to LC50 for Bemisia tabaci (sweet potato whitefly) infested cucumber leaves
Bemisia tabaci [8] = test: Resistance ratio of LC50 for Bemisia tabaci (sweet potato whitefly) infested poinsettia leaves to LC50 for Bemisia tabaci (sweet potato whitefly) infested cabbage leaves
Bemisia tabaci [9] = test: Resistance ratio of LC50 for Bemisia tabaci (sweet potato whitefly) infested squash leaves to LC50 for Bemisia tabaci (sweet potato whitefly) infested cabbage leaves
Bemisia tabaci [10] = test: Resistance ratio of LC50 for Bemisia tabaci (sweet potato whitefly) infested squash leaves to LC50 for Bemisia tabaci (sweet potato whitefly) infested cotton leaves

Row | SMILES | LC50 (Bemisia tabaci [1]) [mg/L] | LC50 (Bemisia tabaci [2]) [mg/L] | LC50 (Bemisia tabaci [3]) [mg/L] | LC50 (Bemisia tabaci [4]) [mg/L] | RatioLC50 (Bemisia tabaci [5]) | LC50 (Bemisia tabaci [6]) [mg/L] | RatioLC50 (Bemisia tabaci [7]) | RatioLC50 (Bemisia tabaci [8]) | RatioLC50 (Bemisia tabaci [9]) | RatioLC50 (Bemisia tabaci [10])
1 | CCOP(=S)(OCC)Oc1nc(Cl)c(Cl)cc1Cl [CHLORPYRIFOS] | 722 (≈ 2060 µM) | 581 (≈ 1660 µM) | 924 (≈ 2640 µM) | 2120 (≈ 6040 µM) | 3.65 | 1410 (≈ 4030 µM) |  |  |  | 
2 | C/C(=N\C#N)N(C)Cc1ccc(Cl)nc1 [ACETAMIPRID] | 17.7 (≈ 79.5 µM) | 8.73 (≈ 39.2 µM) | 12.4 (≈ 55.7 µM) | 129 (≈ 579 µM) | 14.8 | 66.4 (≈ 298 µM) | 10.34 |  |  | 
3 | N#Cc1nn(-c2c(Cl)cc(C(F)(F)F)cc2Cl)c(N)c1[S+]([O-])C(F)(F)F (centres undefined) [FIPRONIL] | 3.82 (≈ 8.74 µM) | 5.96 (≈ 13.6 µM) | 8.79 (≈ 20.1 µM) | 9.13 (≈ 20.9 µM) |  | 3.51 (≈ 8.03 µM) |  |  |  | 
4 | CC[C@H](C)[C@H]1O[C@]2(C=C[C@@H]1C)C[C@@H]1C[C@@H](C/C=C(\C)[C@@H](O[C@H]3C[C@H](OC)[C@@H](O[C@H]4C[C@H](OC)[C@@H](O)[C@H](C)O4)[C@H](C)O3)[C@@H](C)/C=C/C=C3\CO[C@@H]4[C@H](O)C(C)=C[C@@H](C(=O)O1)[C@]34O)O2.CO[C@H]1C[C@H](O[C@H]2[C@H](C)O[C@@H](O[C@@H]3/C(C)=C/C[C@@H]4C[C@@H](C[C@]5(C=C[C@H](C)[C@@H](C(C)C)O5)O4)OC(=O)[C@@H]4C=C(C)[C@@H](O)[C@H]5OC/C(=C\C=C\[C@@H]3C)[C@]54O)C[C@@H]2OC)O[C@@H](C)[C@@H]1O [ABAMECTIN] | 0.3 | 0.4 | 0.5 | 0.74 |  | 0.7 |  |  |  | 
5 | Cc1c(COC(=O)[C@@H]2[C@H](/C=C(\Cl)C(F)(F)F)C2(C)C)cccc1-c1ccccc1 [BIFENTHRIN] | 145 (≈ 343 µM) | 115 (≈ 272 µM) | 462 (≈ 1090 µM) | 278 (≈ 657 µM) | 4.02 | 228 (≈ 539 µM) |  | 3.19 | 7.5 | 7.5
6 | CCCCN(CCCC)SN(C)C(=O)Oc1cccc2c1OC(C)(C)C2 [CARBOSULFAN] | 696 (≈ 1830 µM) | 586 (≈ 1540 µM) | 3090 (≈ 8110 µM) | 3730 (≈ 9790 µM) | 6.36 | 2880 (≈ 7560 µM) |  | 5.36 |  | 
